Results from patent publication US8324227B2, “Thieno[2,3-D]-pyrimidin-4(3H)-one compounds with antifungal properties and process thereof” (FDC Limited, priority 2008, dated 2012).
In brackets after ≈: the same amount, converted by molar mass.

Experiments:
Test in all cases: Antifungal susceptibility, MIC by broth macro-dilution method
C. albicans (ATCC 24433) = format: cell-based, Candida albicans; conditions: Candida albicans, ATCC24433, RPMI 1640 medium with MOPS buffer, end points after 48 hours, NI till x = no inhibition up to x, read-out: MIC against fungi, C. albicans (ATCC 24433)
Description: (§1) In vitro evaluation of antifungal activity was performed by determining the minimum inhibitory concentration (MIC). Anti-fungal susceptibility testing of these anti-fungal compounds was done by broth dilution method using RPMI 1640 medium with MOPS buffer. Known anti-fungal agents like fluconazole and amphotericin-B were used as positive control. End points were determined after 48 hours visually and by using spectrophotometer wherever necessary. Different dilutions were, tried and various sets of experiments performed.

A. niger (ATCC 16404) = format: cell-based, Aspergillus niger; conditions: Aspergillus niger, ATCC16404, RPMI 1640 medium with MOPS buffer, end points after 48 hours, NI till x = no inhibition up to x, read-out: MIC against fungi, A. niger (ATCC 16404)
Description: as §1

[1] = tested on: F. proliferatum (ATCC 10052); format: cell-based, Fusarium proliferatum; conditions: Fusarium proliferatum, ATCC10052, RPMI 1640 medium with MOPS buffer, end points after 48 hours, NI till x = no inhibition up to x, read-out: MIC against fungi, F. proliferatum (ATCC 10052)
Description: as §1

MIC (C. albicans (ATCC 24433)) [µg/mL]	MIC (A. niger (ATCC 16404)) [µg/mL]	MIC [1] [µg/mL]	Compound
2 to 4 (≈ 4.47 to 8.94 µM)	> 128	> 128	O=c1c2cc(CCCO)sc2ncn1CC(O)(Cn1cncn1)c1ccc(F)cc1F (stereo not drawn) [Compound 1-A27, 3-[2-(2,4-Difluorophenyl)-2-hydroxy-3-[1,2,4]-triazol-1-yl-propyl]-6-(3-hydroxypropyl)-thieno[2,3-d]pyrimidin-4(3H)-one]
0.25 to 0.5 (≈ 0.62 to 1.24 µM)	> 64	> 64	Cc1cc2c(=O)n(CC(O)(Cn3cncn3)c3ccc(F)cc3F)cnc2s1 (stereo not drawn) [Compound 1-A28, 3-[2-(2,4-Difluorophenyl)-2-hydroxy-3-[1,2,4]-triazol-1-yl-propyl]-6-methylthieno[2,3-d]pyrimidin-4(3H)-one]
0.25 to 1 (≈ 0.816 to 3.27 µM)	64 to 128 (≈ 209 to 418 µM)	> 128	OC(Cn1cncn1)(Cn1cncn1)c1ccc(F)cc1F [Fluconazole, reference compound]
